According to ChEMBL document CHEMBL1201862, “PubChem BioAssay data set” (2004):
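Interpolation was linear, between the two tested concentrations surrounding the appropriate level; five concentrations were tested over 48 hours in 96-well plates. Here, GI50 denotes the concentration required for 50% inhibition of growth.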 Calls of active or inactive are those of the source. Rule as the data show it: active = GI50 up to about 1.1 µM and inactive = higher.

Columns and labels:
Assay in all cases: NCI tumour cell line growth inhibition, 48 h
UO-31 = test system: UO-31
A549 = test system: A549
A498 = test system: A498
SK-MEL-2 = test system: SK-MEL-2
M14 = test system: M14
MOLT-4 = test system: MOLT-4
HT-29 = test system: HT-29
HCT-116 = test system: HCT-116
HOP-62 = test system: HOP-62
T47D = test system: T47D
OVCAR-3 = test system: OVCAR-3
PC-3 = test system: PC-3
OVCAR-8 = test system: OVCAR-8
UACC-257 = test system: UACC-257
NCI/ADR-RES = test system: NCI/ADR-RES
SW-620 = test system: SW-620
LOX IMVI = test system: LOX IMVI
IGROV-1 = test system: IGROV-1
DU-145 = test system: DU-145
HL-60 = test system: HL-60

Measured: GI50

O=[N+]([O-])C(=C1Nc2ccccc2N1)/C(Cl)=C(/Cl)N1CCOCC1
inactive: UO-31 > 100 µM | A549 > 100 µM | A498 > 100 µM | SK-MEL-2 > 100 µM | M14 88.5 µM | MOLT-4 17.4 µM | HT-29 > 100 µM | HCT-116 89.5 µM | HOP-62 97.9 µM | T47D 15.1 µM | OVCAR-3 26.7 µM | PC-3 87.7 µM | OVCAR-8 28.8 µM | UACC-257 > 100 µM | NCI/ADR-RES 57.8 µM | SW-620 30.5 µM

COc1cc(OC)c2c(c1-c1ccc(C)cc1)CC(C)N(Cc1ccccc1)[C@H]2C (some centres undefined)
inactive: UO-31 47.9 µM | A549 44.2 µM | LOX IMVI 36.2 µM | A498 87.7 µM | M14 43.2 µM | MOLT-4 23.6 µM | HT-29 18.5 µM | IGROV-1 80.4 µM | HCT-116 20.3 µM | DU-145 86.3 µM | HL-60 12.2 µM | HOP-62 59 µM | T47D 23.8 µM | PC-3 36.1 µM | OVCAR-8 39.4 µM | UACC-257 25.2 µM | SW-620 34.8 µM

Cc1cccc(Nc2cn(CCOc3ccccc3)c(=O)[nH]c2=O)c1
inactive: UO-31 21.4 µM | A549 22.7 µM | LOX IMVI 11.9 µM | A498 > 100 µM | M14 47.2 µM | MOLT-4 36.9 µM | IGROV-1 16.7 µM | HCT-116 27.5 µM | DU-145 28.5 µM | HOP-62 29.8 µM | OVCAR-3 18.7 µM | PC-3 23.4 µM | UACC-257 43.7 µM | NCI/ADR-RES 1.73 µM | SW-620 > 100 µM

c1ccc2c(c1)sc1c3cnccc3ccc21
inactive: UO-31 > 100 µM | A549 33.7 µM | LOX IMVI 71.6 µM | A498 > 100 µM | SK-MEL-2 > 100 µM | M14 > 100 µM | MOLT-4 19.5 µM | HT-29 99.8 µM | IGROV-1 25.3 µM | HCT-116 > 100 µM | DU-145 > 100 µM | HL-60 40.6 µM | HOP-62 > 100 µM | T47D > 100 µM | OVCAR-3 > 100 µM | UACC-257 56.6 µM | NCI/ADR-RES > 100 µM | SW-620 76.4 µM

C=C(C(=O)OCC)C(=O)OCC
inactive: UO-31 > 100 µM | A549 > 100 µM | LOX IMVI > 100 µM | SK-MEL-2 > 100 µM | M14 > 100 µM | MOLT-4 > 100 µM | HT-29 > 100 µM | IGROV-1 > 100 µM | HCT-116 > 100 µM | DU-145 > 100 µM | HOP-62 > 100 µM | T47D > 100 µM | OVCAR-3 > 100 µM | PC-3 > 100 µM | OVCAR-8 > 100 µM | UACC-257 > 100 µM | SW-620 > 100 µM

Brc1ccc(/C=N/C23CC4CC(CC(C4)C2)C3)cc1
inactive: UO-31 > 100 µM | A549 > 100 µM | LOX IMVI > 100 µM | A498 > 100 µM | SK-MEL-2 > 100 µM | M14 > 100 µM | MOLT-4 > 100 µM | HT-29 > 100 µM | IGROV-1 > 100 µM | HCT-116 > 100 µM | HL-60 > 100 µM | HOP-62 > 100 µM | OVCAR-3 > 100 µM | OVCAR-8 > 100 µM | UACC-257 > 100 µM | SW-620 > 100 µM

COc1ccccc1NC(=S)N/N=C/c1cccc(C)n1
inactive: UO-31 3.57 µM | A549 4.16 µM | LOX IMVI 2.3 µM | A498 23.6 µM | SK-MEL-2 5.64 µM | M14 2.18 µM | MOLT-4 1.34 µM | HT-29 4.17 µM | IGROV-1 4.06 µM | HCT-116 3.4 µM | DU-145 4.29 µM | HL-60 3.15 µM | HOP-62 5.85 µM | OVCAR-3 1.26 µM | PC-3 4.5 µM | OVCAR-8 4.07 µM | UACC-257 3.33 µM | NCI/ADR-RES 3.31 µM | SW-620 3.14 µM

Cc1ccc(C)c(N2C(=O)C(=O)C(c3nc4ccccc4s3)C(=O)C2=O)c1
inactive: UO-31 > 100 µM | A549 > 100 µM | LOX IMVI > 100 µM | A498 > 100 µM | SK-MEL-2 > 100 µM | M14 > 100 µM | MOLT-4 > 100 µM | HT-29 > 100 µM | IGROV-1 > 100 µM | HCT-116 > 100 µM | HL-60 > 100 µM | HOP-62 > 100 µM | OVCAR-3 > 100 µM | OVCAR-8 > 100 µM | UACC-257 > 100 µM | SW-620 > 100 µM

CN(C)C(=S)SCC(=O)Nc1ccccc1
inactive: UO-31 > 100 µM | A549 > 100 µM | LOX IMVI > 100 µM | A498 > 100 µM | SK-MEL-2 > 100 µM | M14 > 100 µM | MOLT-4 > 100 µM | HT-29 > 100 µM | IGROV-1 > 100 µM | HCT-116 > 100 µM | DU-145 > 100 µM | HL-60 > 100 µM | HOP-62 > 100 µM | T47D > 100 µM | OVCAR-3 > 100 µM | OVCAR-8 > 100 µM | UACC-257 > 100 µM | NCI/ADR-RES > 100 µM | SW-620 > 100 µM

COc1ccc(OC)c(N2C(=O)CSC2c2cc(OC)c(OC)c(OC)c2)c1 (centres undefined)
inactive: UO-31 > 100 µM | A549 > 100 µM | LOX IMVI > 100 µM | A498 > 100 µM | SK-MEL-2 > 100 µM | M14 > 100 µM | MOLT-4 > 100 µM | HT-29 > 100 µM | IGROV-1 > 100 µM | HCT-116 > 100 µM | DU-145 > 100 µM | HL-60 > 100 µM | OVCAR-3 > 100 µM | PC-3 > 100 µM | OVCAR-8 > 100 µM | UACC-257 89.5 µM | NCI/ADR-RES > 100 µM | SW-620 > 100 µM

O=C(N/N=C(/c1nc2ccc(Cl)cc2[nH]c1=O)C(O)c1ccc(Cl)cc1Cl)c1ccncc1 (centres undefined)
inactive: UO-31 > 100 µM | A549 > 100 µM | LOX IMVI > 100 µM | A498 > 100 µM | SK-MEL-2 > 100 µM | M14 > 100 µM | MOLT-4 > 100 µM | HT-29 > 100 µM | IGROV-1 > 100 µM | HCT-116 > 100 µM | HL-60 > 100 µM | HOP-62 > 100 µM | OVCAR-3 > 100 µM | OVCAR-8 > 100 µM | UACC-257 > 100 µM | SW-620 > 100 µM

C=C1C(=O)[C@]23[C@H](O)[C@H]1CC[C@H]2[C@@]12CO[C@@]3(O)C[C@@H]1C(C)(C)CC[C@@H]2O [MEGATHYRIN A]
inactive: UO-31 13.8 µM | A549 16.2 µM | LOX IMVI 4.25 µM | A498 7.45 µM | MOLT-4 7.11 µM | HT-29 6.21 µM | IGROV-1 7.14 µM | HCT-116 5.21 µM | DU-145 9.53 µM | HL-60 8.45 µM | HOP-62 > 25 µM | OVCAR-3 11.5 µM | PC-3 9.2 µM | OVCAR-8 8.57 µM | UACC-257 6.01 µM | NCI/ADR-RES 9.66 µM | SW-620 5.5 µM
